Consider three molecules from ChEMBL document CHEMBL5321279 (J Med Chem, 2023).

In data set [1] the test system is SARS-CoV-2. The data set can be described thus: Antiviral activity against SARS-CoV-2 Omicron BA.2.12.1 infected in human A549-hACE2-TMPRSS2 cells assessed as reduction in viral replication pre-incubated with compound followed by viral infection measured after 72 hrs by ELISA assay. It counts as functional, organism-based. The settings on record: Severe acute respiratory syndrome coronavirus 2, Omicron BA.2.12.1, A549-hACE2-TMPRSS2. (An ELISA detects its analyte on a solid surface through an enzyme-linked reagent.)

Data set [2] relates to SARS-CoV-2. The data set can be described thus: Antiviral activity against SARS-CoV-2 Omicron BA.5 infected in human A549-hACE2-TMPRSS2 cells assessed as reduction in viral replication pre-incubated with compound followed by viral infection measured after 72 hrs by ELISA assay. It counts as functional, organism-based. The settings on record: Severe acute respiratory syndrome coronavirus 2, Omicron BA.5, A549-hACE2-TMPRSS2.

A short description of data set [3]: Cytotoxicity against human MT4 cells assessed as reduction in cell growth measured after 5 days by CellTiter-Glo assay. It counts as toxicity, cell-based. As to conditions: MT4 cells, time 5 day.
The test system of data set [4] is SARS-CoV-2. The data set can be described thus: Antiviral activity against SARS-CoV-2 Omicron BA.4.6 infected in human A549-hACE2-TMPRSS2 cells assessed as reduction in viral replication pre-incubated with compound followed by viral infection measured after 72 hrs by ELISA assay. It counts as functional, organism-based. As to conditions: Severe acute respiratory syndrome coronavirus 2, Omicron BA.4.6, A549-hACE2-TMPRSS2.

For data set [5], the system named is SARS-CoV-2. The data set can be described thus: Antiviral activity against SARS-CoV-2 WA1 infected in human A549-hACE2-TMPRSS2 cells assessed as reduction in viral replication pre-incubated with compound followed by viral infection measured after 72 hrs by ELISA assay. It counts as functional, organism-based. The settings on record: Severe acute respiratory syndrome coronavirus 2, WA1, A549-hACE2-TMPRSS2.

For data set [6], the system named is SARS-CoV-2. The data set can be described thus: Antiviral activity against SARS-CoV-2 Omicron BA.2.75 infected in human A549-hACE2-TMPRSS2 cells assessed as reduction in viral replication pre-incubated with compound followed by viral infection measured after 72 hrs by ELISA assay. It counts as functional, organism-based. The settings on record: Severe acute respiratory syndrome coronavirus 2, Omicron BA.2.75, A549-hACE2-TMPRSS2.

Data set [7] concerns SARS-CoV-2. The data set can be described thus: Antiviral activity against Nluc-fused SARS-CoV-2 infected in human A549-ACE2 cells assessed as reduction in cell viability incubated for 2 days by Nano-Glo reagent based analysis. It counts as functional, organism-based. The settings on record: Severe acute respiratory syndrome coronavirus 2, A549-ACE2, 48 h.
Data set [8] deals with SARS-CoV-2. In words: Antiviral activity against SARS-CoV-2 Omicron BQ1.1 infected in human A549-hACE2-TMPRSS2 cells assessed as reduction in viral replication pre-incubated with compound followed by viral infection measured after 72 hrs by ELISA assay. It counts as functional, organism-based. The settings on record: Severe acute respiratory syndrome coronavirus 2, Omicron BQ1.1, A549-hACE2-TMPRSS2.

A short description of data set [9]: Apparent permeability of the compound from apical to basolateral side in human Caco-2 cells incubated for 2 hrs by LC-MS/MS analysis. It counts as ADME, cell-based. As to conditions: Caco-2. (Passage across Caco-2 layers is used to estimate intestinal permeability.)
Data set [10] relates to SARS-CoV-2. The data set can be described thus: Antiviral activity against SARS-CoV-2 Omicron BF.5 infected in human A549-hACE2-TMPRSS2 cells assessed as reduction in viral replication pre-incubated with compound followed by viral infection measured after 72 hrs by ELISA assay. It counts as functional, organism-based. As to conditions: Severe acute respiratory syndrome coronavirus 2, Omicron BF.5, A549-hACE2-TMPRSS2.

Data set [11] concerns SARS-CoV-2. The data set can be described thus: Antiviral activity against SARS-CoV-2 Delta (B.1.617.2) infected in human A549-hACE2-TMPRSS2 cells assessed as reduction in viral replication pre-incubated with compound followed by viral infection measured after 48 hrs by ELISA assay. It counts as functional, organism-based. The settings on record: Severe acute respiratory syndrome coronavirus 2, Delta (B.1.617.2).

For data set [12], the system named is SARS-CoV-2. In words: Antiviral activity against SARS-CoV-2 Omicron BA.2 infected in human A549-hACE2-TMPRSS2 cells assessed as reduction in viral replication pre-incubated with compound followed by viral infection measured after 72 hrs by ELISA assay. It counts as functional, organism-based. As to conditions: Severe acute respiratory syndrome coronavirus 2, Omicron BA.2, A549-hACE2-TMPRSS2.

For data set [13], the system named is SARS-CoV-2. In words: Antiviral activity against SARS-CoV-2 Omicron BQ1.1 infected in human A549-hACE2-TMPRSS2 cells assessed as fold reduction in viral replication pre-incubated with compound followed by viral infection measured after 72 hrs by ELISA assay relative to SARS-CoV-2 WA1. It counts as functional, Severe acute respiratory syndrome coronavirus 2.

The nature of data set [14]: Cytotoxicity against human A549-ACE2 cells assessed as reduction in cell growth measured after 48 hrs by CellTiter-Glo assay. The settings on record: for CC50 at 48 h: A549-ACE2 cells. It counts as toxicity, cell-based. For orientation: ATP-based viability assays read luminescence as a measure of living cells.
Data set [15] deals with SARS-CoV-2. In words: Antiviral activity against SARS-CoV-2 Omicron XBB infected in human A549-hACE2-TMPRSS2 cells assessed as reduction in viral replication pre-incubated with compound followed by viral infection measured after 72 hrs by ELISA assay. It counts as functional, organism-based. As to conditions: Severe acute respiratory syndrome coronavirus 2, Omicron XBB.

Data set [16] is described as follows: Drug metabolism in human A549-ACE2 cells assessed as Nucleotide triphosphate metabolite formation at 10 uM measured after 48 hrs by LC-MS analysis. It counts as ADME, cell-based. As to conditions: a549-ace2, 48 h.
The subject of data set [17] is SARS-CoV-2. The data set can be described thus: Antiviral activity against […]-fused SARS-CoV-2 infected in human NHBE-T cells assessed as reduction in cell viability incubated for 1 day by Nano-Glo reagent based analysis. As to conditions: Severe acute respiratory syndrome coronavirus 2, NHBE-T, 24 h. It counts as functional, organism-based.
For data set [18], the system named is SARS-CoV-2. The data set can be described thus: Antiviral activity against SARS-CoV-2 Omicron BA.1 infected in human A549-hACE2-TMPRSS2 cells assessed as reduction in viral replication pre-incubated with compound followed by viral infection measured after 72 hrs by ELISA assay. It counts as functional, organism-based. The settings on record: Severe acute respiratory syndrome coronavirus 2, Omicron BA.1, A549-hACE2-TMPRSS2.

The test system of data set [19] is SARS-CoV-2. The data set can be described thus: Antiviral activity against SARS-CoV-2 Omicron BA.4 infected in human A549-hACE2-TMPRSS2 cells assessed as reduction in viral replication pre-incubated with compound followed by viral infection measured after 72 hrs by ELISA assay. It counts as functional, organism-based. As to conditions: Severe acute respiratory syndrome coronavirus 2, Omicron BA.4, A549-hACE2-TMPRSS2.

Data set [20] has as its system SARS-CoV-2. In words: Antiviral activity against SARS-CoV-2 Omicron BF.5 infected in human A549-hACE2-TMPRSS2 cells assessed as fold reduction in viral replication pre-incubated with compound followed by viral infection measured after 72 hrs by ELISA assay relative to SARS-CoV-2 WA1. It counts as functional, Severe acute respiratory syndrome coronavirus 2.
The test system of data set [21] is SARS-CoV-2. The data set can be described thus: Antiviral activity against SARS-CoV-2 Omicron BA.4 infected in human A549-hACE2-TMPRSS2 cells assessed as fold reduction in viral replication pre-incubated with compound followed by viral infection measured after 72 hrs by ELISA assay relative to SARS-CoV-2 WA1. It counts as functional, Severe acute respiratory syndrome coronavirus 2.

For data set [22], the system named is SARS-CoV-2. The data set can be described thus: Antiviral activity against SARS-CoV-2 Delta (B.1.617.2) infected in human A549-hACE2-TMPRSS2 cells assessed as fold reduction in viral replication pre-incubated with compound followed by viral infection measured after 48 hrs by ELISA assay relative to SARS-CoV-2 WA1. It counts as functional, Severe acute respiratory syndrome coronavirus 2.

Data set [23] relates to SARS-CoV-2. In words: Antiviral activity against SARS-CoV-2 Omicron BA.1 infected in human A549-hACE2-TMPRSS2 cells assessed as fold reduction in viral replication pre-incubated with compound followed by viral infection measured after 72 hrs by ELISA assay relative to SARS-CoV-2 WA1. It counts as functional, Severe acute respiratory syndrome coronavirus 2.
In data set [24] the test system is SARS-CoV-2. In words: Antiviral activity against SARS-CoV-2 Omicron BA.2.12.1 infected in human A549-hACE2-TMPRSS2 cells assessed as fold reduction in viral replication pre-incubated with compound followed by viral infection measured after 72 hrs by ELISA assay relative to SARS-CoV-2 WA1. It counts as functional, Severe acute respiratory syndrome coronavirus 2.

One may read the EC50 as the concentration giving half of the maximal effect. Broadly, the CC50 is the concentration at which the toxic effect on the cells reaches its halfway point. By Papp A→B is commonly meant how fast a substance crosses the layer from the apical side. Regarding `N#C[C@@]1(c2ccc3c(N)ncnn23)O[C@H](CO)[C@@H](O)[C@H]1O` [GS-441524], the EC50 in the data set on SARS-CoV-2 [1] was found to be 1790 nM; with SARS-CoV-2 [2] it was 4800 nM; in the data set with SARS-CoV-2 [4] it was 5400 nM; in the data set with SARS-CoV-2 [5], 4450 nM; in the data set with SARS-CoV-2 [6], 2580 nM; in the data set with SARS-CoV-2 [7], 2490 nM. Besides, the EC50 in the data set on SARS-CoV-2 [8] was 8770 nM; in the data set with SARS-CoV-2 [10], 7.78 µM; in the data set with SARS-CoV-2 [11] it was 3260 nM; with SARS-CoV-2 [12], 1330 nM; in the data set on SARS-CoV-2 [15], 6300 nM; in the data set with SARS-CoV-2 [17] it was 3250 nM. Besides, the EC50 in the data set with SARS-CoV-2 [18] is 2660 nM; with SARS-CoV-2 [19], 1630 nM. The CC50 at 120 h in data set [3] was determined as 69 µM. Further, the Papp A→B at 2 h in data set [9] stood at 0.1 ×10⁻⁶ cm/s. For the same molecule, the “fold change (FC)” value with SARS-CoV-2 [13] was 1.33. For the same molecule, the CC50 at 48 h in data set [14] was greater than 50 µM. Moreover, in [16], the Drug metabolism entry is reported as “Metabolite_Detected”.
In the case of `CCC(CC)COC(=O)[C@H](C)N[P@](=O)(OC[C@H]1O[C@@](C#N)(c2ccc3c(N)ncnn23)[C@H](O)[C@@H]1O)Oc1ccccc1`, the “fold change (FC)” value with SARS-CoV-2 [20] was 0.94; in the data set on SARS-CoV-2 [21], 0.15; in the data set with SARS-CoV-2 [22] it was 0.59; in the data set with SARS-CoV-2 [23], 0.45; in the data set with SARS-CoV-2 [13], 1.12; with SARS-CoV-2 [24], 0.2. In addition, the concentration for a half-maximal effect (EC50) with SARS-CoV-2 [1] was 30 nM; in the data set with SARS-CoV-2 [2], 110 nM; in the data set on SARS-CoV-2 [4], 90 nM; in the data set with SARS-CoV-2 [5] it was 80 nM; in the data set on SARS-CoV-2 [6], 30 nM; with SARS-CoV-2 [7], 60 nM. For the same molecule, the EC50 in the data set with SARS-CoV-2 [8] was found to be 90 nM; in the data set on SARS-CoV-2 [10], 0.13 µM; in the data set on SARS-CoV-2 [11], 70 nM; in the data set with SARS-CoV-2 [12], 20 nM; with SARS-CoV-2 [15], 90 nM; in the data set on SARS-CoV-2 [17], 40 nM. Further, the values for the EC50 with SARS-CoV-2 [18] and in the data set on SARS-CoV-2 [19] were 40 nM and 20 nM, respectively. Besides, in data set [3], the CC50 at 120 h came to 1.7 µM. The CC50 in [14] (a549-ace2, 48 h) is 22.9 µM.
With `CC(C)C(=O)OC[C@H]1O[C@@](C#N)(c2ccc3c(N)ncnn23)[C@H](O)[C@@H]1O` [OBELDESIVIR], the “fold change (FC)” value in the data set with SARS-CoV-2 [20] is given as 0.8; with SARS-CoV-2 [21], 0.26; with SARS-CoV-2 [22], 0.72; in the data set on SARS-CoV-2 [23], 0.32; in the data set with SARS-CoV-2 [13] it was 1.33; with SARS-CoV-2 [24] it was 0.29. The EC50 in the data set on SARS-CoV-2 [1] was 440 nM; with SARS-CoV-2 [2] it was 1300 nM; in the data set on SARS-CoV-2 [4] it was 2450 nM; with SARS-CoV-2 [5], 1010 nM; in the data set on SARS-CoV-2 [6] it was 690 nM; with SARS-CoV-2 [7], 1900 nM. For the same molecule, the EC50 with SARS-CoV-2 [8] was determined as 2440 nM; with SARS-CoV-2 [10], 3.13 µM; with SARS-CoV-2 [11], 740 nM; with SARS-CoV-2 [12], 710 nM; with SARS-CoV-2 [15], 2030 nM; with SARS-CoV-2 [17], 430 nM. Besides, the half-maximal effective concentration (EC50) came out at 650 nM with SARS-CoV-2 [18] and 400 nM with SARS-CoV-2 [19]. In addition, the CC50 at 120 h in data set [3] was greater than 50 µM. Besides, the Papp A→B at 2 h in [9] is 1 ×10⁻⁶ cm/s. Moreover, the CC50 at 48 h in data set [14] is greater than 50 µM. Also, the Drug metabolism entry in [16] is recorded as “Metabolite_Detected”.
